Assay results: paper PMC10439028, “SGLT5 is the renal transporter for 1,5-anhydroglucitol, a major player in two rare forms of neutropenia” (Cellular and Molecular Life Sciences: CMLS, 2023)

Key:
[1] = target: T1, SGLT5-TM (S70N–E71I–L75H) (Homo sapiens, UniProt A0PJK1, E71I/L75H/S70N); assay: Inhibition of 10 µM 1,5-AG transport by triple mutant SGLT5-TM (S70N-E71I-L75H); format: cell-based
T1 construct: pUB83-hSGLT5-iso2 as well as the various SGLT5 mutants obtained were used to transduce HEK293T cells; expressed in transfected cells; host or cells: HEK293T, lentiviral transduction (pUB83)
Method: The transport experiments to study the specificity of SGLT4 or SGLT5, were performed in the presence of 10 µM U-[^14C + ^12C]-mannose (for SGLT4) or 2-[^3H + ^1H]-1,5-AG (for SGLT5) and increasing concentrations of various sugars tested. The transport experiments to study the inhibition of empagliflozin, dapagliflozin or remogliflozin, on the transport of 1,5-AG by SGLT5 or its variants were performed in the presence of 10 µM 2-[^3H + ^1H]-1,5-AG and increasing concentrations of the various gliflozins tested.
SGLT5 mutants were created using the quick-change site directed mutagenesis method that enables effective mutagenesis without subcloning of the amplified PCR products. Complementary primer pairs carrying the desired replacements (Supplementary Table 3) were designed using an online tool (https://www.agilent.com/store/primerDesignProgram.jsp). The PCR protocol was carried out following the manufacturer instructions regarding the KOD HOT Start polymerase kit (TOYOBO™, Novagen). The amplified DNA was cleaned-up from the reactions constituents using the GeneJET PCR purification Kit (Thermo Scientific™) and the size of the DNA fragment were verified by DNA agarose-gel electrophoresis. After eliminating the parental DNA by digesting the purified DNA with the DpnI restriction enzyme, the DNA fragments containing the appropriate changes were transformed in E. coli NEB Turbo competent cells (C2984H). Once colonies were obtained, plasmid DNA was finally amplified, purified and sequenced to verify that the required changes had been introduced and eliminate any PCR errors. Next, pUB83-hSGLT5-iso2 as well as the various SGLT5 mutants obtained were used to transduce HEK293T cells using the exact same protocol as described above to create model cell lines overexpressing the different SGLT5 transporters.
Supplementary Fig. 7: Substrate specificity of SGLT5 - impact of replacing specific and conserved substrate binding residues in human SGLT5 by the equivalent ones in […]
When shown, the IC50 values are derived from inhibition curves showing the transport activity of 1,5-AG by the indicated SGLT5 mutants. Values show the concentration needed of the various sugars to inhibit by 50% the transport activity of 10 µM 2-[1H+3H]-1,5-AG. When the inhibition was too weak to derive IC50 values, the inhibition of the transport of 1,5-AG with the indicated concentration of the inhibitor-sugar is shown. Of note, despite having a lower […]
µM). These apparently contradictory changes are not necessarily surprising: in the case of enzymes, there are multiple examples of mutations that, at the same time, increase the apparent affinity (decrease the Km) of an enzyme for its substrate while decreasing the Vmax.
Measurement of transport activities and the description of the structures of the various inhibitory sugars used are as in Fig. 3C. Data corresponds to n = 3 in at least 2 independent […]
(1 picture or pasted object on this page, not shown here)

[2] = target: T2, human SGLT5 (Homo sapiens, UniProt A0PJK1); assay: Radioactive uptake assay (saturation kinetics) in HEK293T cells stably overexpressing human SGLT5-iso2; format: cell-based; conditions: for hSGLT5 Vmax: transport of the labelled substrate, Fig. 2B
T2 construct: expressed in transfected cells
T2 sequence (A0PJK1 1-596): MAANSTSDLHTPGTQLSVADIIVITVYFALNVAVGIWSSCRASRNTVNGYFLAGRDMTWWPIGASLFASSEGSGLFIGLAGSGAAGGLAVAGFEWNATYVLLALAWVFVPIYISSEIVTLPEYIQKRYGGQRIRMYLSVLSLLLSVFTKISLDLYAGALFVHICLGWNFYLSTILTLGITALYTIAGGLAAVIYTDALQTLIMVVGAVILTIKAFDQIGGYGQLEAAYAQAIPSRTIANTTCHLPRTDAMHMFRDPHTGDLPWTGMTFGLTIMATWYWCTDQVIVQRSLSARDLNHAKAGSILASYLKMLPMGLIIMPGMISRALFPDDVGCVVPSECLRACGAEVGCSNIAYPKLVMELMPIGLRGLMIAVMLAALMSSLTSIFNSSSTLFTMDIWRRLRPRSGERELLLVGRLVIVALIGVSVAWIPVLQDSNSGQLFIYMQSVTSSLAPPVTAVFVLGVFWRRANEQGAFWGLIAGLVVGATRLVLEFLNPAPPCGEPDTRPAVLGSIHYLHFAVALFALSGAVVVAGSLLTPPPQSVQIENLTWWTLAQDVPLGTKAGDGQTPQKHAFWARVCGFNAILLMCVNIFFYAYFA
Text: This assay was used to study (1) the transport of 1,5-AG or mannose by the HEK293T model cell lines that stably overexpressed the various transporters or by the transiently transfected HEK293T cells using JetPEI® as a transfection agent prepared as described above and (2) the substrate specificity of each transporter.
For a typical transporter experiment we proceeded as follows. […] To minimize cell loss during the various washing steps in the radioactive uptake experiments, the wells where the cells were seeded were previously coated with poly- D-lysine, which improved their adhesion to the plastic surface of the wells. For this, each well of the 24-well plates was treated with 200 µl of a 0.01% poly-L-lysine solution for 10 min, washed 3 times with 1 ml of sterilized water and left to dry for 2 h. Only then could the 24-well plates be seeded with the appropriate cell lines and cultured overnight at 37 °C in 5% CO2.
On day two, the radioactive uptake assay could be performed. The cell culture media was removed by aspiration and cells were incubated for 20 min at 37 °C and 5% CO2 with a basal medium (10 mM HEPES, pH 7.4, 1 mM CaCl2, 1 mM MgCl2, 2 mM KCl) containing 140 mM choline chloride to deplete intracellular […] ions. This was subsequently replaced with the uptake medium (basal medium + 140 mM NaCl, 25 μM cytochalasin B, 1 mg/ml BSA) containing either radioactive U-[^14C]-mannose (15,000 cpm/well) or 2-[^3H]-1,5-AG (30,000 cpm/well) and respectively, non-radioactive mannose or 1,5-AG, at the required concentration in the experiment. […]
Once the uptake medium was added to the cells, the plates were incubated at 37 °C in 5% CO2 during the required time. […] In each experiment, the transport activities were calculated after subtracting a “blank” value, corresponding to the radioactivity in the appropriate control cells (HEK293T cells that were stably or transiently transfected with one of the parent plasmids pEF6/MycHisA, pEF6HisB, pUB82 or pUB83 with no inserted cDNA) that were analyzed in parallel.

T1 sequence (A0PJK1 whole entry S70N/E71I/L75H): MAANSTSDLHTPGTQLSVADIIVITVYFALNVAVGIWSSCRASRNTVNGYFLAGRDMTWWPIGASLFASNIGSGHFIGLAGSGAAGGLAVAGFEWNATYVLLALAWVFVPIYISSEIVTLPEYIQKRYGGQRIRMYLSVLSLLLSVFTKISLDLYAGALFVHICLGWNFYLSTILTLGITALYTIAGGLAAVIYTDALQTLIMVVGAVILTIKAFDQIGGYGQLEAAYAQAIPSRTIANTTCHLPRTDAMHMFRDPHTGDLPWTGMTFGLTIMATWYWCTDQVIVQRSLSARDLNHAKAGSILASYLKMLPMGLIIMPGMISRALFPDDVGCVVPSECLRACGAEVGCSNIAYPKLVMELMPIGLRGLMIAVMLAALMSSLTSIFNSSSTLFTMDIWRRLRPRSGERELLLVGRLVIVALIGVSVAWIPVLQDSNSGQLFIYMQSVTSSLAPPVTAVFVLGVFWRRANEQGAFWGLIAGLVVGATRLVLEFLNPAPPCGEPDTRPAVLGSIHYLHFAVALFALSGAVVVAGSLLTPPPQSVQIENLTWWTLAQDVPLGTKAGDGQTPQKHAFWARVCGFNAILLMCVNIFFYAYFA

With `OC[C@H]1OC[C@H](O)[C@@H](O)[C@@H]1O` [1,5-AG, 1,5-anhydroglucitol] as the molecule, how does the “IC50 for 1,5-AG lower than the IC50 for SGLT5-WT” value ([1]; 33 µM versus 162 µM) read?
The value was 5 fold.

What about the “inhibition of SGLT5-TM” value ([1]; competition experiments, Supplementary Fig. 7) of the same molecule?
The value was “still being inhibited”.

What about the Vmax ([2]; hSGLT5 WT, Table 1 experiments) of the same molecule?
Its Vmax is 17.3 ± 0.3 pmol/min/10^5cells.

What about the “hSGLT5 Vmax” value [2] of the same molecule?
Its value is 14.1 ± 0.8 pmol/min/10^5 cells.

What does the source list for `OC[C@H]1OC(O)[C@@H](O)[C@@H](O)[C@@H]1O` (stereo partly drawn) [Mannose, mannose]?
loss of affinity of SGLT5-TM ([1]; versus wild-type SGLT5, competition experiments, Supplementary Fig. 7): tenfold; hSGLT5 Vmax [2]: 44.7 ± 12.4 pmol/min/10^5 cells
